# Measured values taken from ChEMBL document CHEMBL3272271, “Folate antagonists. 13. 2,4-Diamino-6-](alpha,alpha,alpha-trifluoro-m-tolyl)thio]quinazoline and related 2,4-diamino-6-[(phenyl- and naphthyl)thio]quinazolines, a unique class of antimetabolites with extraordinary antimalarial and antibacterial effects” (J Med Chem, 1978).
# Active and inactive are the calls of the source. The calls are words filed in the database; no cut-off is given here.
# Key:
# [1] = test system: Plasmodium berghei; test: Antimalarial activity against trophozoite-induced Plasmodium berghei infected in mouse assessed as daily dose required to suppression of 90% parasite infection administered with diet for 6 days; type: functional
# [2] = test system: Enterococcus faecalis; test: Antibacterial activity against Streptococcus faecalis MGH-2 by gradient plate test; type: functional
# [3] = test system: Plasmodium gallinaceum; test: Antimalarial activity against sporozoite-induced Plasmodium gallinaceum infected in white leghorn chicken assessed as disease cure from parasite infection at 120 mg/kg, sc administered 72 hrs after infection; type: functional, organism-based; design: dose 120 mg/kg
# [4] = test system: Plasmodium gallinaceum; test: Antimalarial activity against trophozoite-induced Plasmodium gallinaceum infected in white leghorn chicken assessed as increase in mean survival days of host at 40 mg/kg, sc administered 72 hrs after infection relative to control; type: functional; settings: route subcutaneous
# [5] = test system: Plasmodium berghei; test: Antimalarial activity against Plasmodium berghei infected in mouse assessed as increase in mean survival days of host at 20 mg/kg, sc administered 72 hrs after infection relative to control; type: functional; settings: route subcutaneous
# [6] = test system: Plasmodium gallinaceum; test: Antimalarial activity against trophozoite-induced Plasmodium gallinaceum infected in white leghorn chicken assessed as disease cure from parasite infection at 320 mg/kg, sc administered 72 hrs after infection; type: functional, organism-based; design: dose 320 mg/kg
# [7] = test system: Pseudomonas aeruginosa; test: Antibacterial activity against Pseudomonas aeruginosa 28 by gradient plate test; type: functional
# [8] = test system: Staphylococcus aureus; test: Antibacterial activity against drug-resistant Staphylococcus aureus S18713 by gradient plate test; type: functional
# [9] = test system: Plasmodium berghei; test: Antimalarial activity against Plasmodium berghei infected in mouse assessed as increase in mean survival days of host at 80 mg/kg, sc administered 72 hrs after infection relative to control; type: functional; settings: route subcutaneous
# [10] = test system: Staphylococcus aureus; test: Antibacterial activity against Staphylococcus aureus UC-96 by gradient plate test; type: functional
# [11] = test system: Plasmodium gallinaceum; test: Antimalarial activity against trophozoite-induced Plasmodium gallinaceum infected in white leghorn chicken assessed as increase in mean survival days of host at 160 mg/kg, sc administered 72 hrs after infection relative to control; type: functional; settings: route subcutaneous
# [12] = test system: Plasmodium berghei; test: Antimalarial activity against Plasmodium berghei infected in mouse assessed as increase in mean survival days of host at 40 mg/kg, sc administered 72 hrs after infection relative to control; type: functional; settings: route subcutaneous
# [13] = test system: Plasmodium gallinaceum; test: Antimalarial activity against trophozoite-induced Plasmodium gallinaceum infected in white leghorn chicken assessed as increase in mean survival days of host at 80 mg/kg, sc administered 72 hrs after infection relative to control; type: functional; settings: route subcutaneous
# [14] = test system: Plasmodium berghei; test: Antimalarial activity against Plasmodium berghei infected in mouse assessed as increase in mean survival days of host at 10 mg/kg, sc administered 72 hrs after infection relative to control; type: functional; settings: route subcutaneous
# [15] = test system: Plasmodium gallinaceum; test: Antimalarial activity against sporozoite-induced Plasmodium gallinaceum infected in white leghorn chicken assessed as disease cure from parasite infection at 60 mg/kg, sc administered 72 hrs after infection; type: functional, organism-based; design: dose 60 mg/kg
# [16] = test system: Plasmodium berghei; test: Antimalarial activity against Plasmodium berghei infected in mouse assessed as disease cure from parasite infection at 80 mg/kg, sc administered 72 hrs after infection; type: functional, organism-based; design: dose 80 mg/kg
# [17] = test system: Plasmodium gallinaceum; test: Antimalarial activity against sporozoite-induced Plasmodium gallinaceum infected in white leghorn chicken assessed as disease cure from parasite infection at 240 mg/kg, sc administered 72 hrs after infection; type: functional, organism-based; design: dose 240 mg/kg
# [18] = test system: Plasmodium berghei; test: Ratio of quinine hydrochloride SD90 to compound SD90 for trophozoite-induced Plasmodium berghei infected in mouse assessed as daily dose required to suppression of 90% parasite infection administered with diet for 6 days; type: functional
# [19] = test system: Shigella sonnei; test: Antibacterial activity against Shigella sonnei C-10 by gradient plate test; type: functional
# [20] = test system: Gallus gallus; test: Toxicity in sporozoite-induced Plasmodium gallinaceum infected white leghorn chicken assessed as mortality at 480 mg/kg, sc administered 72 hrs after infection measured up to 6 days; type: organism-based; design: dose 480 mg/kg, route subcutaneous; settings: in vivo
# [21] = test system: Plasmodium berghei; test: Antimalarial activity against Plasmodium berghei infected in mouse assessed as disease cure from parasite infection at 320 mg/kg, sc administered 72 hrs after infection; type: functional, organism-based; design: dose 320 mg/kg
# [22] = test system: Plasmodium gallinaceum; test: Antimalarial activity against trophozoite-induced Plasmodium gallinaceum infected in white leghorn chicken assessed as increase in mean survival days of host at 10 mg/kg, sc administered 72 hrs after infection relative to control; type: functional; settings: route subcutaneous
# [23] = test system: Plasmodium berghei; test: Antimalarial activity against Plasmodium berghei infected in mouse assessed as disease cure from parasite infection at 640 mg/kg, sc administered 72 hrs after infection; type: functional, organism-based; design: dose 640 mg/kg
# [24] = test system: Plasmodium gallinaceum; test: Antimalarial activity against trophozoite-induced Plasmodium gallinaceum infected in white leghorn chicken assessed as increase in mean survival days of host at 320 mg/kg, sc administered 72 hrs after infection relative to control; type: functional; settings: route subcutaneous
# [25] = test system: Plasmodium gallinaceum; test: Antimalarial activity against sporozoite-induced Plasmodium gallinaceum infected in white leghorn chicken assessed as disease cure from parasite infection at 480 mg/kg, sc administered 72 hrs after infection; type: functional, organism-based; design: dose 480 mg/kg
# [26] = test system: Escherichia coli; test: Antibacterial activity against Escherichia coli Vogel by gradient plate test; type: functional
# [27] = test system: Plasmodium berghei; test: Antimalarial activity against Plasmodium berghei infected in mouse assessed as disease cure from parasite infection at 160 mg/kg, sc administered 72 hrs after infection; type: functional, organism-based; design: dose 160 mg/kg
# [28] = test system: Plasmodium gallinaceum; test: Antimalarial activity against trophozoite-induced Plasmodium gallinaceum infected in white leghorn chicken assessed as increase in mean survival days of host at 20 mg/kg, sc administered 72 hrs after infection relative to control; type: functional; settings: route subcutaneous
# [29] = test system: Plasmodium berghei; test: Antimalarial activity against Plasmodium berghei infected in mouse assessed as increase in mean survival days of host at 160 mg/kg, sc administered 72 hrs after infection relative to control; type: functional; settings: route subcutaneous
# [30] = test system: Plasmodium berghei; test: Antimalarial activity against Plasmodium berghei infected in mouse assessed as increase in mean survival days of host at 320 mg/kg, sc administered 72 hrs after infection relative to control; type: functional; settings: route subcutaneous
# [31] = test system: Plasmodium berghei; test: Antimalarial activity against Plasmodium berghei infected in mouse assessed as increase in mean survival days of host at 2.5 mg/kg, sc administered 72 hrs after infection relative to control; type: functional; settings: route subcutaneous
# [32] = test system: Plasmodium gallinaceum; test: Antimalarial activity against trophozoite-induced Plasmodium gallinaceum infected in white leghorn chicken assessed as increase in mean survival days of host at 1.25 mg/kg, sc administered 72 hrs after infection relative to control; type: functional; settings: route subcutaneous
# [33] = test system: Plasmodium gallinaceum; test: Antimalarial activity against trophozoite-induced Plasmodium gallinaceum infected in white leghorn chicken assessed as increase in mean survival days of host at 0.63 mg/kg, sc administered 72 hrs after infection relative to control; type: functional; settings: route subcutaneous
# [34] = test system: Plasmodium berghei; test: Antimalarial activity against Plasmodium berghei infected in mouse assessed as increase in mean survival days of host at 1.25 mg/kg, sc administered 72 hrs after infection relative to control; type: functional; settings: route subcutaneous
# [35] = test system: Mycobacterium tuberculosis; test: Antibacterial activity against Mycobacterium tuberculosis H37Ra by gradient plate test; type: functional
# [36] = test system: Plasmodium berghei; test: Antimalarial activity against Plasmodium berghei infected in mouse assessed as increase in mean survival days of host at 5 mg/kg, sc administered 72 hrs after infection relative to control; type: functional; settings: route subcutaneous
# [37] = test system: Plasmodium gallinaceum; test: Antimalarial activity against trophozoite-induced Plasmodium gallinaceum infected in white leghorn chicken assessed as increase in mean survival days of host at 2.5 mg/kg, sc administered 72 hrs after infection relative to control; type: functional; settings: route subcutaneous
# [38] = test system: Plasmodium gallinaceum; test: Antimalarial activity against trophozoite-induced Plasmodium gallinaceum infected in white leghorn chicken assessed as increase in mean survival days of host at 5 mg/kg, sc administered 72 hrs after infection relative to control; type: functional; settings: route subcutaneous
# [39] = test system: Plasmodium gallinaceum; test: Antimalarial activity against trophozoite-induced Plasmodium gallinaceum infected in white leghorn chicken assessed as disease cure from parasite infection at 160 mg/kg, sc administered 72 hrs after infection; type: functional, organism-based; design: dose 160 mg/kg
# [40] = test system: Plasmodium berghei; test: Antimalarial activity against Plasmodium berghei infected in mouse assessed as disease cure from parasite infection at 40 mg/kg, sc administered 72 hrs after infection; type: functional, organism-based; design: dose 40 mg/kg
# [41] = test system: Plasmodium berghei; test: Antimalarial activity against Plasmodium berghei infected in mouse assessed as disease cure from parasite infection at 20 mg/kg, sc administered 72 hrs after infection; type: functional, organism-based; design: dose 20 mg/kg
Structure (SMILES),MIC [2] [µg/mL],MST [4] [days],MST [5] [days],Activity [6],MIC [7] [µg/mL],MIC [8] [µg/mL],MST [9] [days],MIC [10] [µg/mL],MST [11] [days],MST [12] [days],MST [13] [days],MST [14] [days],Activity [16],MIC [19] [µg/mL],Activity [21],MST [22] [days],Activity [23],MIC [26] [µg/mL],Activity [27],MST [28] [days],further results
Cc1ccc(Sc2ccc3nc(N)nc(N)c3c2)cc1,< 0.25,10.4,3.9,Active,> 25,< 0.25,9.7,< 0.25,22.2,7.1,15.2,2.5,Active,0.5,Active,4.6,Active,< 0.25,Active,7.6,SD90 [1]: 7.2 mg/kg/day; Activity [3]: Active; Activity [15]: Active; Activity [17]: Active; Ratio [18]: 10; Activity [20]: Toxic; MST [24]: 20 days; Activity [25]: Active
Nc1nc(N)c2cc(NCc3ccc(Cl)c(Cl)c3)ccc2n1,–,12.1,–,–,–,–,–,–,15.3,–,12.9,–,–,–,–,2.2,–,–,–,7,MST [24]: 16.6 days
COc1cccc(Sc2ccc3nc(N)nc(N)c3c2)c1,< 0.25,–,1.5,–,> 25,< 0.25,8.3,< 0.25,–,5.7,–,0.3,–,1,Active,–,Active,< 0.25,–,–,MST [29]: 11.7 days; MST [30]: 12.2 days
Nc1nc(N)c2cc(Sc3cccc4ccccc34)ccc2n1,10,–,10.7,–,> 25,5,18.4,2.5,–,14.5,–,7.9,Active,20,Active,12.4,Active,15,Active,17.4,MST [31]: 1.1 days; MST [32]: 7.2 days; MST [33]: 2.2 days; MST [34]: 0.5 days; MIC [35]: > 25 µg/mL; MST [36]: 1.9 days; MST [37]: 9 days; MST [38]: 11.8 days
CN(Cc1ccc(Cl)c(Cl)c1)c1ccc2nc(N)nc(N)c2c1,–,–,–,Active,–,–,–,–,–,–,–,–,Active,–,Active,–,Active,–,Active,–,Activity [39]: Active; Activity [40]: Active; Activity [41]: Active
